Results: the NIST ThermoML archive (doi:10.1016/j.jct.2014.07.004)

Settings: Liquid, Closed cell (Static) method

CC1COC(=O)O1 (stereo not given) [4-methyl-1,3-dioxolan-2-one]
Settings | vapor or sublimation pressure [kPa]
327.12 K | 0.057
331.22 K | 0.078
338.15 K | 0.123
343.15 K | 0.185
348.15 K | 0.221
353.15 K | 0.287

CCOC(=O)OCC [diethyl carbonate]
Settings | vapor or sublimation pressure [kPa]
277.96 K | 0.401
282.06 K | 0.515
286.15 K | 0.666
288.15 K | 0.797
293.15 K | 1.031
298.15 K | 1.414
303.15 K | 1.844
306.64 K | 2.347
310.74 K | 3.012
318.15 K | 4.582
323.15 K | 6.172
328.15 K | 7.162
333.15 K | 9.088
338.15 K | 11.56
343.15 K | 13.78
348.15 K | 16.09
353.15 K | 20.83

COC(=O)OC [dimethyl carbonate]
Settings | vapor or sublimation pressure [kPa]
277.96 K | 2.298
282.06 K | 3.121
286.15 K | 4.019
290.25 K | 4.863
294.35 K | 6.311
298.15 K | 6.982
302.54 K | 9.72
306.64 K | 11.7
310.74 K | 14.02
318.15 K | 19.82
323.15 K | 23.07

CCOC(=O)OC [ethyl methyl carbonate]
Settings | vapor or sublimation pressure [kPa]
277.96 K | 0.958
282.06 K | 1.285
283.15 K | 1.516
288.15 K | 2.008
293.15 K | 2.439
298.15 K | 3.658
303.15 K | 4.534
308.15 K | 5.801
310.74 K | 6.739
314.83 K | 7.885
323.15 K | 12.28
328.15 K | 15.26
333.15 K | 18.28

O=C1OCCO1 [ethylene carbonate]
Settings | vapor or sublimation pressure [kPa]
333.15 K | 0.045
338.15 K | 0.066
343.15 K | 0.087
348.15 K | 0.124
353.15 K | 0.175

O [water]
Settings | vapor or sublimation pressure [kPa]
277.96 K | 0.961
282.06 K | 1.243
286.15 K | 1.442
290.25 K | 1.947
294.35 K | 2.537
298.44 K | 3.288
302.54 K | 4.068
306.64 K | 5.035
310.74 K | 7.056
314.83 K | 8.582
318.93 K | 9.702
323.03 K | 11.46
327.12 K | 15.18
